The target in the test is T1, PPARγ-LBD (UniProt ID: P37231-2) (Homo sapiens, UniProt P37231).
T1 construct: PPARγ-LBD (UniProt ID: P37231-2) was expressed and purified in insect system; made in house
T1 sequence (P37231 238-503 limits assumed): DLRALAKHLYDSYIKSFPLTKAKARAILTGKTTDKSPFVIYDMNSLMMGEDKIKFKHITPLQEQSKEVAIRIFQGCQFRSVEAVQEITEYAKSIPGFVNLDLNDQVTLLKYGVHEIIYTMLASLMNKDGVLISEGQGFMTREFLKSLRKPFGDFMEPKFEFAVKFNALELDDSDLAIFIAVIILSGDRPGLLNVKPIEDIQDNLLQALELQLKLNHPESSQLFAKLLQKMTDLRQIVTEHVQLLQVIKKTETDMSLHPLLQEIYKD
The test is described as follows: PPARγ-SMRT recruitment assay (TR-FRET). Type of test: biochemical. Conditions: for Emax: 1 h, read-out: Top %; for EC50: TR-FRET, SMRT peptide recruitment to PPARγ-LBD, 120 min pre-incubation. How it is done:
PPARγ TR-FRET assay was initiated to evaluate potential activatory effect of the compounds of the present disclosure for SMRT recruitment to PPARγ protein. PPARγ-LBD (UniProt ID: P37231-2) was expressed and purified in insect system and stored at −80° C. in aliquots. Biotinylated SMRT peptide was synthesized (Biotin-[…]). 5 μL protein solution mixture consisting of 10 nM PPARγ-LBD and 2 nM Anti-His Eu (Cisbio, 61HISKLA) in assay buffer (25 mM HEPES pH7.4, 25 mM KCl, 1 mM EDTA, 0.01% BSA, 0.01% Tween-20, 1 mM TCEP) was added to 384-well plates containing duplicate 10-point dose response titration of compounds in 5 μL assay buffer (1% f.c. DMSO(v/v)). After 120 min pre-incubation at room temperature, 5 μL peptide solution mixture consisting of 50 nM Biotin-SMRT peptide and 25 nM Streptavidin-XL665 (Cisbio, 610SAXLA) added to plates. Plates were incubated for 60 min. and read in CLARIOstar Plus plate reader with Ex/Em 620 nm/[…]. Average TR-FRET ratio of high control (Wells with 10 uM control compound) was calculated as High Control (HC). Average TR-FRET ratio of low control (Wells with 1% DMSO) was calculated as Low control (LC). For one compound, top % is the max value of % Activation.
EC50 values were determined by fitting the data to the standard 4 parameters with Hill Slope using GraphPad Prism software. […] ND: No Determine.
In general terms: TR-FRET usually uses a lanthanide donor and a delayed reading to cut background.

The mark [1] stands for this setting: max value of % Activation, high control 10 uM control compound, low control 1% DMSO.

Structures are written as SMILES. Like-named read-outs stand apart in the source and are kept apart here.

What is called EC50 is the concentration giving half of the maximal effect. A high value points to lower potency in that assay. The compound `CC#Cc1c(F)cc2[nH]c(-c3cc(C#N)ccc3S(C)(=O)=O)cc(=O)c2c1F` [Example 19, 3-(5,7-Difluoro-4-oxo-6-(prop-1-yn-1-yl)-1,4-dihydroquinolin-2-yl)-4-(methylsulfonyl)benzonitrile] yielded an EC50 below 100 nM. In addition, the Emax under setting [1] amounted to 208%.

Take `CS(=O)(=O)c1ccc(C#N)cc1-c1cc(=O)c2c(F)c(C#Cc3ccccc3F)c(F)cc2[nH]1` [Example 51, 3-(5,7-Difluoro-6-((2-fluorophenyl)ethynyl)-4-oxo-1,4-dihydroquinolin-2-yl)-4-(methylsulfonyl)benzonitrile]: the EC50 is below 100 nM. Under setting [1], the Emax amounted to 447%.

With `COc1nccnc1C#Cc1c(F)cc2[nH]c(-c3cc(C#N)ccc3S(C)(=O)=O)cc(=O)c2c1F` [Example 43, 3-(5,7-Difluoro-6-((3-methoxypyrazin-2-yl)ethynyl)-4-oxo-1,4-dihydroquinolin-2-yl)-4-(methylsulfonyl)benzonitrile], the EC50 was below 100 nM. The Emax under setting [1] came out at 237%.

Compound `CS(=O)(=O)c1ccc(C#N)cc1-c1cc(=O)c2c(F)c(C#Cc3cnc4cccnn34)c(F)cc2[nH]1` [Example 40, 3-(5,7-Difluoro-6-(imidazo[1,2-h]pyridazin-3-ylethynyl)-4-oxo-1,4-dihydroquinolin-2-yl)-4-(methylsulfonyl)benzonitrile] yielded an EC50 below 100 nM. Besides, the Emax under setting [1] worked out at 237%.

For the compound `CC(C)C#Cc1c(F)cc2[nH]c(-c3cc(C#N)ccc3S(C)(=O)=O)cc(=O)c2c1F` [Example 21, 3-(5,7-Difluoro-6-(3-methylbut-1-yn-1-yl)-4-oxo-1,4-dihydroquinolin-2-yl)-4-(methylsulfonyl)benzonitrile], the EC50 was below 100 nM.

In the case of `CS(=O)(=O)c1ccc(C#N)cc1-c1cc(=O)c2c(F)c(C#Cc3ccncc3OC(F)F)c(F)cc2[nH]1` [Example 47, 3-(6-((3-(Difluoromethoxy)pyridin-4-yl)ethynyl)-5,7-difluoro-4-oxo-1,4-dihydroquinolin-2-yl)-4-(methylsulfonyl)benzonitrile], the Emax came to 376% and the EC50 is below 100 nM.

Consider `Cc1ccccc1C#Cc1c(F)cc2[nH]c(-c3cc(C#N)ccc3S(C)(=O)=O)cc(=O)c2c1F` [Example 17, 3-(5,7-Difluoro-4-oxo-6-(o-tolylethynyl)-1,4-dihydroquinolin-2-yl)-4-(methylsulfonyl)benzonitrile], for which the EC50 was below 100 nM. Further, the Emax under setting [1] turned out to be 613%.

For `CS(=O)(=O)c1ccc(C#N)cc1-c1cc(=O)c2c(F)c(C#Cc3ccccc3OC(F)(F)F)c(F)cc2[nH]1` [Example 36, 3-(5,7-Difluoro-4-oxo-6-((2-(trifluoromethoxy)phenyl)ethynyl)-1,4-dihydroquinolin-2-yl)-4-(methylsulfonyl)benzonitrile], the EC50 was below 100 nM. In addition, under setting [1], the Emax turned out to be 322%.

The compound `C[C@@H](O)C#Cc1c(F)cc2[nH]c(-c3cc(C#N)ccc3S(C)(=O)=O)cc(=O)c2c1F` [Example 4, (R)-3-(5,7-Difluoro-6-(3-hydroxybut-1-yn-1-yl)-4-oxo-1,4-dihydroquinolin-2-yl)-4-(methylsulfonyl)benzonitrile] came in with an EC50 below 100 nM. Moreover, the Emax under setting [1] came out at 200%.

`CS(=O)(=O)c1ccc(C#N)cc1-c1cc(=O)c2c(F)c(/C=C/c3ccccc3)c(F)cc2[nH]1` [Example 53, (E)-3-(5,7-Difluoro-4-oxo-6-styryl-1,4-dihydroquinolin-2-yl)-4-(methylsulfonyl)benzonitrile] showed an EC50 below 100 nM. Moreover, under setting [1], the Emax came out at 650%.

Compound `CC1(C#Cc2c(F)cc3[nH]c(-c4cc(C#N)ccc4S(C)(=O)=O)cc(=O)c3c2F)COC1` [Example 45, 3-(5,7-Difluoro-6-((3-methyloxetan-3-yl)ethynyl)-4-oxo-1,4-dihydroquinolin-2-yl)-4-(methylsulfonyl)benzonitrile] came in with an EC50 below 100 nM. In addition, the Emax under setting [1] was 249%.

`COC(C)(C)C#Cc1c(F)cc2[nH]c(-c3cc(C#N)ccc3S(C)(=O)=O)cc(=O)c2c1F` [Example 50, 3-(5,7-Difluoro-6-(3-methoxy-3-methylbut-1-yn-1-yl)-4-oxo-1,4-dihydroquinolin-2-yl)-4-(methylsulfonyl)benzonitrile]: the concentration for a half-maximal effect (EC50) is below 100 nM. Besides, the Emax under setting [1] is 372%.

The compound `Cn1nnnc1Sc1ccc(C#N)cc1-c1cc(=O)c2c(F)cc(F)cc2[nH]1` [Example 54, 3-(5,7-Difluoro-4-oxo-1,4-dihydroquinolin-2-yl)-4-((1-methyl-1H-tetrazol-5-yl)thio)benzonitrile] gave an EC50 above 1000 nM.

`CS(=O)(=O)c1ccc(C#N)cc1-c1cc(=O)c2c(F)c(C#CC3CC3)c(F)cc2[nH]1` [Example 9, 3-(6-(Cyclopropylethynyl)-5,7-difluoro-4-oxo-1,4-dihydroquinolin-2-yl)-4-(methylsulfonyl)benzonitrile] yielded an EC50 below 100 nM. Besides, under setting [1], the Emax came out at 359%.

In the case of `CS(=O)(=O)c1ccc(C#N)cc1-c1cc(=O)c2c(F)c(C#CCCO)c(F)cc2[nH]1` [Example 6, 3-(5,7-Difluoro-6-(4-hydroxybut-1-yn-1-yl)-4-oxo-1,4-dihydroquinolin-2-yl)-4-(methylsulfonyl)benzonitrile], the EC50 was below 100 nM. For the same compound, under setting [1], the Emax came to 266%.

`CS(=O)(=O)c1ccc(C#N)cc1-c1cc(=O)c2c(F)c(C#CCO)c(F)cc2[nH]1` [Example 3, 3-(5,7-Difluoro-6-(3-hydroxyprop-1-yn-1-yl)-4-oxo-1,4-dihydroquinolin-2-yl)-4-(methylsulfonyl)benzonitrile] displayed an EC50 below 100 nM. Also, under setting [1], the Emax stood at 300%.

`COc1cc(-c2cc(C#N)ccc2S(C)(=O)=O)nc2cc(F)c(C#CC(C)(C)F)c(F)c12` [Example 55, 3-(5,7-Difluoro-6-(3-fluoro-3-methylbut-1-yn-1-yl)-4-methoxyquinolin-2-yl)-4-(methylsulfonyl)benzonitrile] returned an EC50 above 1000 nM.

Regarding `CS(=O)(=O)c1ccc(C#N)cc1-c1cc(=O)c2c(F)c(C#Cc3ccccc3)c(F)cc2[nH]1` [Example 11, 3-(5,7-Difluoro-4-oxo-6-(phenylethynyl)-1,4-dihydroquinolin-2-yl)-4-(methylsulfonyl)benzonitrile], the EC50 is below 100 nM. Moreover, the Emax under setting [1] was found to be 435%.

As to `COc1ccccc1C#Cc1c(F)cc2[nH]c(-c3cc(C#N)ccc3S(C)(=O)=O)cc(=O)c2c1F` [Example 30, 3-(5,7-Difluoro-6-((2-methoxyphenyl)ethynyl)-4-oxo-1,4-dihydroquinolin-2-yl)-4-(methylsulfonyl)benzonitrile], the EC50 is below 100 nM. Besides, the Emax under setting [1] amounted to 283%.

`CC(C)(F)C#Cc1c(F)cc2[nH]c(-c3cc(C#N)ccc3S(C)(=O)=O)cc(=O)c2c1F` [Example 23, 3-(5,7-Difluoro-6-(3-fluoro-3-methylbut-1-yn-1-yl)-4-oxo-1,4-dihydroquinolin-2-yl)-4-(methylsulfonyl)benzonitrile] came in with an EC50 below 100 nM. Also, under setting [1], the Emax is 316%.

Compound `CS(=O)(=O)c1ccc(C#N)cc1-c1cc(=O)c2c(F)c(C#CC3CCOCC3)c(F)cc2[nH]1` [Example 52, 3-(5,7-Difluoro-4-oxo-6-((tetrahydro-2H-pyran-4-yl)ethynyl)-1,4-dihydroquinolin-2-yl)-4-(methylsulfonyl)benzonitrile] displayed an EC50 below 100 nM.

For the origin of these results see US20260274799A1, “HETEROCYCLIC DERIVATIVES, COMPOSITIONS AND USES THEREOF” (DANATLAS PHARMACEUTICALS CO., LTD., priority 2023, published 2026).
